The numbers were not newly measured in patent US6596884B2, “Synthesis of hydrogen peroxide” (University of Pittsburgh, priority 1998, dated 2003), which cites them from elsewhere.

The conditions of this series: obtained by extrapolation of the data from Santacesaria et al., Ind. Eng. Chem. Res., 1994, 33, 277.

For the compound `CCc1ccc2c(c1)C(=O)c1ccccc1C2=O` [Entry 2-EtAQ], the kc was 0.47^(3) cm^3/(g s).
